Drawing on US7998978B2 (Pfizer Inc., priority 2006, dated 2011), this text covers inhibition and Ki for 14 compounds.

For the first assay, the target named is T1, JNK1α1 (Homo sapiens, UniProt P45983).
T1 construct: catalytic domain containing amino acids 1-364 and N-terminal hexahistidine tag; hexahistidine (His6) (N); made in house; host or cells: E. coli BL21 (DE3)
T1 sequence (P45983 1-364): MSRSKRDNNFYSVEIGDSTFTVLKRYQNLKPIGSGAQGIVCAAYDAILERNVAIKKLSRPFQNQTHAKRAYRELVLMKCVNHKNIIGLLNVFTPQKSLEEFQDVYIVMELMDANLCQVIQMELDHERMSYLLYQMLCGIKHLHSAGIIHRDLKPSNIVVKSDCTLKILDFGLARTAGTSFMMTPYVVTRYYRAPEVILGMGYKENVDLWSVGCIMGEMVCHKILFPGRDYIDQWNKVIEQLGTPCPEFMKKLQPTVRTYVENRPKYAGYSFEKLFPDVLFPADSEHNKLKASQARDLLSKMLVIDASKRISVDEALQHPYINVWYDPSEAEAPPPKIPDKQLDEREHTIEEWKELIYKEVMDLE
Description: Coupled spectrophotometric (PK/LDH) JNK1α1 assay: % inhibition and Ki determination. The class given is biochemical. Conditions: @1 uM; read-out: % Inhibition JNK-1. The gist of the method:
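Initial rates were taken from the absorbance decrease at 340 nm at 30° C. Ki was fitted with a tight-binding model over 11 concentrations (top 100 μM); single-point inhibition was tested at 1 or 10 μM.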
What is called inhibition is the relative decrease from the control value, in per cent. As for `O[C@H]1CC[C@H](Nc2ncc3ccc(O[C@@H]4CCN(Cc5ccccc5)C4)cc3n2)CC1` [Example 285, trans-4-[(7-{[(3R)-1-benzylpyrrolidin-3-yl]oxy}quinazolin-2-yl)amino]cyclohexanol], the inhibition at 1 µM is 29%.

Consider `Cc1c(C(C)NC(=O)c2cccc3cnc(N[C@H]4CC[C@H](O)CC4)nc23)cnn1C` (stereo partly drawn) [Example 479, N-[1-(1,5-dimethyl-1H-pyrazol-4-yl)ethyl]-2-[(trans-4-hydroxycyclohexyl)amino]quinazoline-8-carboxamide], for which the inhibition at 1 µM was 13%.

Still in this assay, the particulars now being: @10 uM; read-out: % Inhibition JNK-1.
For `Cc1cccnc1CC(C)NC(=O)c1cccc2cnc(N[C@H]3CC[C@H](O)CC3)nc12` (stereo partly drawn) [Example 495, 2-[(trans-4-hydroxycyclohexyl)amino]-N-(1-methyl-2-(3-methylpyridin-2-yl)ethyl]quinazoline-8-carboxamide], the inhibition at 10 µM turned out to be 76%.

For `O[C@H]1CC[C@H](Nc2ncc3cccc(OC[C@@H]4CCCN5CCCC[C@H]45)c3n2)CC1` [Example 263, trans-4-({8-[(1R, 9aR)-octahydro-2H-quinolizin-1-ylmethoxy]quinazolin-2-yl}amino)cyctohexanol], the inhibition at 10 µM turned out to be 31%.

Staying with this assay, now noted: JNK-1.
As usually defined, the Ki is a measure of affinity in units of concentration, obtained from inhibition or displacement. High values mean weaker binding, low ones tighter binding. `CC(C)C[C@@H](CO)NC(=O)c1ccc2cnc(NC(C)C)nc2c1` [Example 391, N-[(1S)-1-(hydroxymethyl)-3-methylbutyl]-2-(isopropylamino)quinazoline-7-carboxamide]: affinity was put at a Ki of 0.365 µM.

The compound `CC(C)C(=O)N[C@H]1CC[C@H](Nc2ncc3cccc(OC4CCOCC4)c3n2)CC1` [Example 181, 2-methyl-N-(trans-4-{[8-(tetrahydro-2H-pyran-4-yloxy)quinazolin-2-yl]amino}cyclohexyl)propanamide] came in with a Ki of 0.78 µM.

Take `CC(C)[C@@H](CO)NC(=O)c1ccc2cnc(N[C@H]3CC[C@H](O)CC3)nc2c1` [Example 382, 2-[(trans-4-hydroxycyclohexyl)amino]-N-[(1S)-1-(hydroxymethyl)-2-methylpropyl]quinazoline-7-carboxamide]: the Ki was determined as 0.195 µM.

`COc1ccc(CCCC(=O)Nc2cc3cc(-c4cn[nH]c4)ccc3cn2)cc1` [Example 41, 4-(4-methoxyphenyl)-N-[6-(1H-pyrazol-4-yl)isoquinolin-3-yl]butanamide]: the affinity corresponds to a Ki of 0.014 µM.

The compound `CC(C)[C@@H]1CC[C@@H](C)C[C@H]1OCC(=O)Nc1cc2cc(-c3cn[nH]c3)ccc2cn1` [Example 57, 2-{[(1R,2S,5R)-2-isopropyl-5-methylcyclohexyl]oxy}-N-[6-(1H-pyrazol-4-yl)isoquinolin-3-yl]acetamide] registered a Ki of 0.004 µM.

The compound `CC[C@H](C)[C@@H](CO)NC(=O)c1ccc2cnc(NC3CCC3)nc2c1` [Example 414, 2-(cyclobutylamino)-N-[(1S,2S)-1-(hydroxymethyl)-2-methylbutyl]quinazoline-7-carboxamide] came in with a Ki of 1.31 µM.

`O=C(NCC1(O)CCCC1)c1cccc2cnc(N[C@H]3CC[C@H](O)CC3)nc12` [Example 460, 2-[(trans-4-hydroxycyclohexyl)amino]-N-[(1-hydroxycyclopentyl)methyl]quinazoline-8-carboxamide] displayed a Ki of 0.4 µM.

For the compound `CCS(=O)(=O)N[C@H]1CC[C@H](Nc2ncc3cccc(OC4CCOCC4)c3n2)CC1` [Example 183, N-(trans-4-{[8-(tetrahydro-2H-pyran-4-yloxy)quinazolin-2-yl]amino}cyclohexyl)ethanesulfonamide], the Ki is 0.22 µM.

`O[C@H]1CC[C@H](Nc2ncc3ccc(OCC4CCOC4)cc3n2)CC1` (stereo partly drawn) [Example 155, trans-4-{[7-(tetrahydrofuran-3-ylmethoxy)quinazolin-2-yl]amino}cyclohexanol] had a Ki of 0.156 µM.

In turn, `c1cc(OC2CCOC2)c2nc(NC3CCOCC3)ncc2c1` (centres unmarked) [Example 173, 8-(tetrahydrofuran-3-yloxy)-N-(tetrahydro-2H-pyran-4-yl)quinazolin-2-amine] registered a Ki of 1.91 µM.
